In one assay the target is Adenosine kinase (Homo sapiens, UniProt P55263).
Assay [1] concerns the target T1, Delta(24)-sterol reductase (Homo sapiens, UniProt Q15392).
T1 sequence (Q15392 whole entry): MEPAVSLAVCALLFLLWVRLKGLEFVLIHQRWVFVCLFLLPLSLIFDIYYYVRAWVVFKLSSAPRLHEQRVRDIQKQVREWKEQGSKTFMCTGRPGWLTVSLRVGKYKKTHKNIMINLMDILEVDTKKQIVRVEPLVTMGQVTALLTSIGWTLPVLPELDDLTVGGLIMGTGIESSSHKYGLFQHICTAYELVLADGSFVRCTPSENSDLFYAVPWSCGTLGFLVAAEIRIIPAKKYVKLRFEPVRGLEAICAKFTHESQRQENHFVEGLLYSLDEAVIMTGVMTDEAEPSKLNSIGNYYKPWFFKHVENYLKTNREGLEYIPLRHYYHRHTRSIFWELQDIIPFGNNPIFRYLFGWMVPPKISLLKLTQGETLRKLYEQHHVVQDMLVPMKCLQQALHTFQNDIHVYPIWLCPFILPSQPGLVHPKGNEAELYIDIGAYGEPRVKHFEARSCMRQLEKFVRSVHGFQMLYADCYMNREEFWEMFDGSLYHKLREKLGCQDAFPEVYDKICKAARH

For assay [2], the target named is T2, General transcription and DNA repair factor IIH helicase subunit XPD (Homo sapiens, UniProt P18074).
T2 sequence (P18074 whole entry): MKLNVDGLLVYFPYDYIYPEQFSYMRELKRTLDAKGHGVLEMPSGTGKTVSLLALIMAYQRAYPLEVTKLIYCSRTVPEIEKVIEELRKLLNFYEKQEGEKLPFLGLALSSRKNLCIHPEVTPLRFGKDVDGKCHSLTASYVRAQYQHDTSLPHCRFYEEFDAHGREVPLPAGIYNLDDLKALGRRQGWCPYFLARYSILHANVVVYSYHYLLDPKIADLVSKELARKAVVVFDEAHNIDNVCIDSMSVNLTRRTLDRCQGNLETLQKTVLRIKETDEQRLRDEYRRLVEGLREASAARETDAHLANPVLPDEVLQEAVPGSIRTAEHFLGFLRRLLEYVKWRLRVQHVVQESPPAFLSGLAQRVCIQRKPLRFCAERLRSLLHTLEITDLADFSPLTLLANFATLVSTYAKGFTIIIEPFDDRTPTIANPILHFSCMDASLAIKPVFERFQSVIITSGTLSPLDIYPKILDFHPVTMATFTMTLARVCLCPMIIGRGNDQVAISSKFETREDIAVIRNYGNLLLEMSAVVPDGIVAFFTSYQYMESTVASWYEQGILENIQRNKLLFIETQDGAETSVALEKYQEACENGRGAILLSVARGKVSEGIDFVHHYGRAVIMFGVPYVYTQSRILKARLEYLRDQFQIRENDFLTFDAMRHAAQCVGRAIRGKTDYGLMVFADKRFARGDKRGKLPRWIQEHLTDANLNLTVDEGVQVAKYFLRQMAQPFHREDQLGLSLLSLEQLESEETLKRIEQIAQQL
The conditions noted are these: read-out: Kd apparent; k-562, colo 205, sk-n-be(2) and mv-4-11.

The target in assay [3] is T3, Glycogen phosphorylase, liver form (Homo sapiens, UniProt P06737).
T3 sequence (P06737 whole entry): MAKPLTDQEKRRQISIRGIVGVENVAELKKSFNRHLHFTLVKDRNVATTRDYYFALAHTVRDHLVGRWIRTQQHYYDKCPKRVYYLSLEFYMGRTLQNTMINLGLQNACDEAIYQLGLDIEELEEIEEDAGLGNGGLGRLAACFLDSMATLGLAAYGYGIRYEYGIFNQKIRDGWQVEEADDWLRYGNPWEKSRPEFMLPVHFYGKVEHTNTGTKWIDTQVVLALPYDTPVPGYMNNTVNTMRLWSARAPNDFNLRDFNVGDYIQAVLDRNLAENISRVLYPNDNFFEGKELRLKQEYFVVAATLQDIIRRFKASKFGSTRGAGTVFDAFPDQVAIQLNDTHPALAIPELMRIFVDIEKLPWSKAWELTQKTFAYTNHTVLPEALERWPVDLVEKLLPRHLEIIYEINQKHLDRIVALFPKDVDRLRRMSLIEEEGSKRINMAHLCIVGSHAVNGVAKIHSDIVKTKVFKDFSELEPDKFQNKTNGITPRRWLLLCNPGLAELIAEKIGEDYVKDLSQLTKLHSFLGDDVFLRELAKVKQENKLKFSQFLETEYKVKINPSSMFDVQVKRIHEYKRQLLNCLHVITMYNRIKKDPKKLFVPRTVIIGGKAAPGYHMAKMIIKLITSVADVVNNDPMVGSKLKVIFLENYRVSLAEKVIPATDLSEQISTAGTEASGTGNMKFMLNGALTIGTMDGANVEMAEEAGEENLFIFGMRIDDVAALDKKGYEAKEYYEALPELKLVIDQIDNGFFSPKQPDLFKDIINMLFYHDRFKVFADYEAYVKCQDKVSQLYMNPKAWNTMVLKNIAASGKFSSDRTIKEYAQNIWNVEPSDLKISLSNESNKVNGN
In kind it is subcellular, K-562, COLO 205, SK-N-BE(2) and MV-4-11, Cell lysate. To be noted: read-out: Kd apparent.

In assay [4] the target is Mitogen-activated protein kinase 7 (Homo sapiens, UniProt Q13164).
Sequence of Mitogen-activated protein kinase 7 (Q13164 whole entry): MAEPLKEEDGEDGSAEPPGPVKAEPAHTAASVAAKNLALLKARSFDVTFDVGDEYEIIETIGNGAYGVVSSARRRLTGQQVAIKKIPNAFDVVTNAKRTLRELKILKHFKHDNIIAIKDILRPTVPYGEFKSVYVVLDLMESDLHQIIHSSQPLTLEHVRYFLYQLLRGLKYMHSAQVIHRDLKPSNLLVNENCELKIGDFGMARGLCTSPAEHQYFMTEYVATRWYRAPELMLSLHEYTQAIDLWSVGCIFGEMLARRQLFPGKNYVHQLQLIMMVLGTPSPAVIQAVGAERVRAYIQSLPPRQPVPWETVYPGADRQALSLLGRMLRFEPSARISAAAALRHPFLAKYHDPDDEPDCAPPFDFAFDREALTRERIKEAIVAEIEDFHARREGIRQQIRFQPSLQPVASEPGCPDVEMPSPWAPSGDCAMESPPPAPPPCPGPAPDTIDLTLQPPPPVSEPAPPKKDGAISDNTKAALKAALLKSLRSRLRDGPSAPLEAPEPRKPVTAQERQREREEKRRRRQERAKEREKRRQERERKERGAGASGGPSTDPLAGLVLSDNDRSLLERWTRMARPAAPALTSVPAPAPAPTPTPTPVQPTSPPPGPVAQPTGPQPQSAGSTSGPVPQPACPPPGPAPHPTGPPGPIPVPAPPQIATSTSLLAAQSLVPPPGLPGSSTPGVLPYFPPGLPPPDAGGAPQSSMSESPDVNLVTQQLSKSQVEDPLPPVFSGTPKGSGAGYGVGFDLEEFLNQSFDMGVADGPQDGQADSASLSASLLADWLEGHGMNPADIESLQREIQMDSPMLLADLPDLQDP
Assay [5] addresses Protein kinase C beta type (Homo sapiens, UniProt P05771).
Assay [6] deals with Proto-oncogene tyrosine-protein kinase Src (Homo sapiens, UniProt P12931).
Sequence of Proto-oncogene tyrosine-protein kinase Src (P12931 2-536 limits assumed): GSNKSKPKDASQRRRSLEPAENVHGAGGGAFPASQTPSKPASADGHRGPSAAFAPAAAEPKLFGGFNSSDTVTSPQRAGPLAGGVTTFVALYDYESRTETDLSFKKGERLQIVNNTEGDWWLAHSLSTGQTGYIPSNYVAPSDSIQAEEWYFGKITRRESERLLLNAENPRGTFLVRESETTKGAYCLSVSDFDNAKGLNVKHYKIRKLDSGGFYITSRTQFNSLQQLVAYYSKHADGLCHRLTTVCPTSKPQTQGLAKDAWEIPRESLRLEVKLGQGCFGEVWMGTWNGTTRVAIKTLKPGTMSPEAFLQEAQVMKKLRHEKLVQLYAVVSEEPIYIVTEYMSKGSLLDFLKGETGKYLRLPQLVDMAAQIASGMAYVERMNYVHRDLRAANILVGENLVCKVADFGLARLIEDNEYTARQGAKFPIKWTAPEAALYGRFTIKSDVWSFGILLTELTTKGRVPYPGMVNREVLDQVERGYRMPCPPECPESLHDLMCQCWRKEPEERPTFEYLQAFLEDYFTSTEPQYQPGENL
Assay [7] deals with Serine/threonine-protein kinase pim-1 (Homo sapiens, UniProt P11309).
Sequence of Serine/threonine-protein kinase pim-1 (P11309 whole entry): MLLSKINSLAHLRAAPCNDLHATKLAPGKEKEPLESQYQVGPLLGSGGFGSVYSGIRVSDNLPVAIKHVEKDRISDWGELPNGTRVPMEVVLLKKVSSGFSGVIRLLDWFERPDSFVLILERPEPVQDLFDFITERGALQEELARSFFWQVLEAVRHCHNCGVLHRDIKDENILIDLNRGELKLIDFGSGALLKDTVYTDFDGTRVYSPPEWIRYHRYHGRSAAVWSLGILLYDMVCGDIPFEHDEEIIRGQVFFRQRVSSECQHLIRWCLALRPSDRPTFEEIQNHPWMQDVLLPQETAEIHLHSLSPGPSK
Assay [8] addresses T4, EKC/KEOPS complex subunit TP53RK (Homo sapiens, UniProt Q96S44).
T4 sequence (Q96S44 whole entry): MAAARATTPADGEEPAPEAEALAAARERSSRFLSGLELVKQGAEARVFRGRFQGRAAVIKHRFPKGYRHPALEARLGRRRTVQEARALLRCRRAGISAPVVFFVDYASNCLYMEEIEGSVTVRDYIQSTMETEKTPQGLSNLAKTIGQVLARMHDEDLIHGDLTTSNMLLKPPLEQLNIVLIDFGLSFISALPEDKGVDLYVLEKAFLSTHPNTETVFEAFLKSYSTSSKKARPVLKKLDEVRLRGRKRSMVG

The target in assay [9] is Mitogen-activated protein kinase 1 (Homo sapiens, UniProt P28482).
Sequence of Mitogen-activated protein kinase 1 (P28482 whole entry): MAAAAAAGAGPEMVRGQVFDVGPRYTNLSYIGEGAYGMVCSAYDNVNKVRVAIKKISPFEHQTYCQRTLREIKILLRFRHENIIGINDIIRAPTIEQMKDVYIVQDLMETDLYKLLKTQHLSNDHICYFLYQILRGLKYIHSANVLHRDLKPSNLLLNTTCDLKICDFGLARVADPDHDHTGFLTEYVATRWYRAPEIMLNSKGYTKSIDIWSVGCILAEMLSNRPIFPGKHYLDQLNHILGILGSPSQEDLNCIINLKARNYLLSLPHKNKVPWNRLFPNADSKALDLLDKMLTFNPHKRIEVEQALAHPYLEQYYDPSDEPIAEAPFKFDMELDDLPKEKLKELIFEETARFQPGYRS
The target in assay [10] is Serine/threonine-protein kinase SIK3 (Homo sapiens, UniProt Q9Y2K2).
A further assay has as its target DNA topoisomerase 2-beta (Homo sapiens, UniProt Q02880).

Activity calls are given as the source filed them.
Also: in the data inactive means no Kd found up to 30 µM.

Sequence of Protein kinase C beta type (P05771 whole entry): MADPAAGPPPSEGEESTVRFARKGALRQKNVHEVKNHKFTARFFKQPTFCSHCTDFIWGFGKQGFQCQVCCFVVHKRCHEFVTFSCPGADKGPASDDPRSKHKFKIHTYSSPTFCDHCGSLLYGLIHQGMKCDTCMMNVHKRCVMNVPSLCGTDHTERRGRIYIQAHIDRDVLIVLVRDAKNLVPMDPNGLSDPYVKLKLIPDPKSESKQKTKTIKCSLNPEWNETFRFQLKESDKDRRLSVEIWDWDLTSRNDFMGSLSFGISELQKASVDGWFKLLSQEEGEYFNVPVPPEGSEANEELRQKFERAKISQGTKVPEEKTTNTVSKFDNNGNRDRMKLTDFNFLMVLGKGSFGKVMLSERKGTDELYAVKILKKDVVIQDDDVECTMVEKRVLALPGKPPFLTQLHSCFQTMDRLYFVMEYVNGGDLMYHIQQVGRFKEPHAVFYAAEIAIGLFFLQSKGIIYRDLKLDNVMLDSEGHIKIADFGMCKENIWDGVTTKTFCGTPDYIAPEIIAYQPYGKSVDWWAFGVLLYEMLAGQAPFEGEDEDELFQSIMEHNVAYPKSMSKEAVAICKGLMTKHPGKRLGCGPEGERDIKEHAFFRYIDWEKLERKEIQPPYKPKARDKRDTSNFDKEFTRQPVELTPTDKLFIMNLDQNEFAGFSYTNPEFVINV
Sequence of DNA topoisomerase 2-beta (Q02880 whole entry): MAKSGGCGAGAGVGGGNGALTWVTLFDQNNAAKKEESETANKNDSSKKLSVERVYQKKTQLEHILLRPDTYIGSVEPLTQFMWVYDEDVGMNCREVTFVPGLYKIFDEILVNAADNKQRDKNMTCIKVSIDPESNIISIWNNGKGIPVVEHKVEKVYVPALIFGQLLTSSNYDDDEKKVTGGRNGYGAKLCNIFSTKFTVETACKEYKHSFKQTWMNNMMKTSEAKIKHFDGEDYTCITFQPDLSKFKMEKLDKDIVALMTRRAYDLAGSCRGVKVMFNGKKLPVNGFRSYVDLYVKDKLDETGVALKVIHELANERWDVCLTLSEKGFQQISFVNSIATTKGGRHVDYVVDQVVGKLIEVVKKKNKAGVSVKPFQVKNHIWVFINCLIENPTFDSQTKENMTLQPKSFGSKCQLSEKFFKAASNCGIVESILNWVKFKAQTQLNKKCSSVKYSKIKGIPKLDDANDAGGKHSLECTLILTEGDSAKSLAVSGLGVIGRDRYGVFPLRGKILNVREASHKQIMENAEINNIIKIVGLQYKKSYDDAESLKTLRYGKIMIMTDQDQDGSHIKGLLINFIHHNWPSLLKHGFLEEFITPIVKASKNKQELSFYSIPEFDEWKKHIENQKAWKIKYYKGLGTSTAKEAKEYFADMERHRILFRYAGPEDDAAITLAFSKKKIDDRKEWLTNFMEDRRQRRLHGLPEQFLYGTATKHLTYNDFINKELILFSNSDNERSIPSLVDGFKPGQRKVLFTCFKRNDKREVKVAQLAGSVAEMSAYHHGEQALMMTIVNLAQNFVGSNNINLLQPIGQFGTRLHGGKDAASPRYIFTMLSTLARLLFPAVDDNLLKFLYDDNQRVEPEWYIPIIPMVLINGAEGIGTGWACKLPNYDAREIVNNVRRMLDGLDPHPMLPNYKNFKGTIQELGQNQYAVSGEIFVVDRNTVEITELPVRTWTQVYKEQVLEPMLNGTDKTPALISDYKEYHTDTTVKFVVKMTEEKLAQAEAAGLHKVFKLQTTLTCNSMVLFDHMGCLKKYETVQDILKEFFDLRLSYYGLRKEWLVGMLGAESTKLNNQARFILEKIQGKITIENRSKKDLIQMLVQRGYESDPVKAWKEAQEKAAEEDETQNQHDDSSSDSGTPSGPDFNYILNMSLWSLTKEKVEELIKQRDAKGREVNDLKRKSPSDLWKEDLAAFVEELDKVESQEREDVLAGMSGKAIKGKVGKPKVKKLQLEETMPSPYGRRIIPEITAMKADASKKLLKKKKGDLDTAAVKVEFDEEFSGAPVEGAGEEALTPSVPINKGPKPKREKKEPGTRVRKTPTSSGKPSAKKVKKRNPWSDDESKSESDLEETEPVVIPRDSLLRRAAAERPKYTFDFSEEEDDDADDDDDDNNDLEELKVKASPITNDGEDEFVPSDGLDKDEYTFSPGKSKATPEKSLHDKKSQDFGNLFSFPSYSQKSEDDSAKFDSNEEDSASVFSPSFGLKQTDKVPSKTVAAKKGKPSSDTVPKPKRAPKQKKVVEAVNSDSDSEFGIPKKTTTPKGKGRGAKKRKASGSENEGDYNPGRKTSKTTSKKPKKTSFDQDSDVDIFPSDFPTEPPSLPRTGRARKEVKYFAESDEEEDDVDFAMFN
Sequence of Adenosine kinase (P55263 whole entry): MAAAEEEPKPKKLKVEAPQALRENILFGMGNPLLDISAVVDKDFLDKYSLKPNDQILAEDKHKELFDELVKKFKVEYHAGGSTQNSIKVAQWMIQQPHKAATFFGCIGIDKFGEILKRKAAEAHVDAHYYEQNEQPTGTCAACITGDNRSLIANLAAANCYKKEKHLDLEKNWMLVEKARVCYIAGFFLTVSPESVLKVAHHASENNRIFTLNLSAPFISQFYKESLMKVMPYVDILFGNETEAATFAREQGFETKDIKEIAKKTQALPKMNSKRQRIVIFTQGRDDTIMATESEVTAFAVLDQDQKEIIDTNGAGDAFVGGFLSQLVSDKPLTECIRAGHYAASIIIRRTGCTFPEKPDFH

In the case of `C[C@@H](Nc1cc(F)cc(F)c1)c1cc(C(=O)N(C)C)cc2c(=O)cc(N3CCOCC3)oc12` [AZD-8186], the Kd (at Adenosine kinase; in assay [1]; in assay [2]; in assay [3]; in assay [4]; in assay [5]) was > 30 µM (inactive) each time. Also, the Kd in [6] was > 30 µM (inactive); in assay [7] it was > 30 µM (inactive); in assay [8], > 30 µM (inactive); in [9], > 30 µM (inactive); in assay [10] it was > 30 µM (inactive); at DNA topoisomerase 2-beta it was 0.936 µM (active).

Turning to `CN1CCC(COc2cnc(-c3cccc(Cn4nc(-c5cccc(C#N)c5)ccc4=O)c3)nc2)CC1` [TEPOTINIB], the Kd (at Adenosine kinase; in assay [1]; in assay [2]; in assay [3]; in assay [4]; in assay [5]) was > 30 µM (inactive) throughout. For the same compound, the Kd (in [6]; in assay [7]; in [8]; in assay [9]; in [10]; at DNA topoisomerase 2-beta) was > 30 µM (inactive) each time.

`CCCS(=O)(=O)Nc1ccc(F)c(C(=O)c2c[nH]c3ncc(-c4ccc(Cl)cc4)cc23)c1F` [VEMURAFENIB]: the Kd (at Adenosine kinase; in assay [1]; in assay [2]; in [3]; in assay [4]; in assay [5]) was > 30 µM (inactive) throughout. Further, the Kd (in [6]; in assay [7]; in assay [8]; in [9]; in [10]; on DNA topoisomerase 2-beta) was > 30 µM (inactive) each time.

As to `O=C(O)[C@]1(Cc2cccc(Nc3nccs3)n2)CC[C@@H](Oc2cccc(Cl)c2F)CC1` [MK-5108], the Kd (at Adenosine kinase; in assay [1]; in assay [2]; in assay [3]; in assay [4]; in assay [5]) was > 30 µM (inactive) throughout. Further, the Kd (in assay [6]; in [7]; in [8]; in assay [9]; in assay [10]; at DNA topoisomerase 2-beta) was > 30 µM (inactive) in each case.

Regarding `COc1cc(OC)c(/C=C/S(=O)(=O)Cc2ccc(OC)c(NCC(=O)O)c2)c(OC)c1` [RIGOSERTIB], the Kd (at Adenosine kinase; in [1]; in [2]; in assay [3]; in assay [4]; in assay [5]) was > 30 µM (inactive) each time. Also, the Kd (in [6]; in assay [7]; in [8]; in assay [9]; in [10]; at DNA topoisomerase 2-beta) was > 30 µM (inactive) each time.

As for `Cc1cc(-c2cc(O)ccc2Cl)cc2nnc(Nc3ccc(OCCN4CCCC4)cc3)nc12`, the Kd (on Adenosine kinase; in [1]; in assay [2]; in [3]; in assay [4]; in assay [5]) was > 30 µM (inactive) in each case. Further, the Kd is 0.001 µM (active) in assay [6]; > 30 µM (inactive) in [7]; > 30 µM (inactive) in assay [8]; > 30 µM (inactive) in assay [9]; 0.003 µM (active) in assay [10]; > 30 µM (inactive) at DNA topoisomerase 2-beta.

On to `CCn1c(=O)c(-c2cc[nH]n2)cc2c(C)nc(N)nc21` [VOXTALISIB], for which the Kd (on Adenosine kinase; in assay [1]; in [2]; in assay [3]; in [4]; in assay [5]) was > 30 µM (inactive) each time. For the same compound, the Kd (in [6]; in assay [7]; in assay [8]; in assay [9]; in [10]; at DNA topoisomerase 2-beta) was > 30 µM (inactive) each time.

As for `Cc1cc2c(F)c(Oc3ncnn4cc(OC[C@@H](C)OC(=O)[C@H](C)N)c(C)c34)ccc2[nH]1` [BRIVANIB ALANINATE], the Kd (at Adenosine kinase; in [1]; in assay [2]; in assay [3]; in assay [4]; in assay [5]) was > 30 µM (inactive) throughout. In addition, the Kd (in assay [6]; in [7]; in assay [8]; in assay [9]; in [10]; at DNA topoisomerase 2-beta) was > 30 µM (inactive) each time.

Take `COC(=O)N[C@@H](C)CNc1nccc(-c2cn(C(C)C)nc2-c2cc(Cl)cc(NS(C)(=O)=O)c2F)n1` [ENCORAFENIB]: the Kd (at Adenosine kinase; in assay [1]; in [2]; in [3]; in assay [4]; in assay [5]) was > 30 µM (inactive) in each case. In addition, the Kd (in assay [6]; in assay [7]; in assay [8]; in assay [9]; in assay [10]; on DNA topoisomerase 2-beta) was > 30 µM (inactive) throughout.
